Consider six compounds from ChEMBL document CHEMBL1201862, “PubChem BioAssay data set” (2004).

What all share (experiment): inhibition of tumour cell growth, NCI panel, 48 h
The test system of test [1] is K562.
In test [2] the test system is EKVX.
Test [3] has as its system SW-620.
Test [4] relates to A549.
For test [5], the system named is SNB-75.
The subject of test [6] is NCI-H226.
Test [7] concerns SR.
Test [8] deals with NCI-H522.
For test [9], the system named is SF-295.
The test system of test [10] is KM12.
Test [11] relates to ACHN.
In test [12] the test system is A498.
For test [13], the system named is TK-10.
For test [14], the system named is LOX IMVI.
The test system of test [15] is RXF 393.
The subject of test [16] is SK-MEL-2.
Test [17] deals with MCF7.
Test [18] concerns SNB-19.
For test [19], the system named is OVCAR-8.
In test [20] the test system is HCT-116.

Molecules are shown by their SMILES.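 Dose response: 5 concentrations. Exposure: 48 h. Format: 96-well plates. Endpoint: linear interpolation; highest concentration if not reached. GI50 is the concentration that inhibits growth by half.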 Activity calls are given as the source filed them. Cut-off read from the data, not from the text of the source: active = GI50 up to about 1.1 µM and inactive = higher.

`CCCn1c2c(c3ccccc3c1=O)C(=O)c1ccccc1-2`: the GI50 in test [1] was > 100 µM (inactive); in test [2], > 76.7 µM (inactive); in test [3], > 53.5 µM (inactive); in test [4], 36.4 µM (inactive); in [5], > 48.8 µM (inactive); in test [6], > 46.5 µM (inactive). In addition, the GI50 in [7] was 5.14 µM (inactive); in test [8], 2.37 µM (inactive); in [9], > 80.5 µM (inactive); in [10], 20.7 µM (inactive); in test [11], 53.6 µM (inactive); in [12] it was > 48.4 µM (inactive). For the same compound, the GI50 in [13] was 61.8 µM (inactive); in test [14], > 100 µM (inactive); in test [15] it was 82.4 µM (inactive); in test [16] it was > 100 µM (inactive); in [17], > 42.4 µM (inactive); in test [18], > 100 µM (inactive). For the same compound, the GI50 in test [19] was 61.1 µM (inactive); in test [20], 25.2 µM (inactive).
For the compound `CC(=O)Nc1ccc(Cc2ccc3nc(O)cc(C)c3c2)cc1`, the GI50 in test [1] was > 100 µM (inactive); in test [2], 65.3 µM (inactive); in test [3], > 100 µM (inactive); in test [4], > 100 µM (inactive); in test [5], 10.3 µM (inactive); in [6], > 100 µM (inactive). Moreover, the GI50 in test [7] was > 100 µM (inactive); in [8], 48.8 µM (inactive); in test [9], 29.9 µM (inactive); in test [10] it was > 100 µM (inactive); in test [11], 50.8 µM (inactive); in test [12], > 100 µM (inactive). Also, the GI50 is 40.5 µM (inactive) in test [13]; > 100 µM (inactive) in [14]; 35.5 µM (inactive) in test [15]; 22.2 µM (inactive) in [16]; 81.5 µM (inactive) in test [17]; 63.5 µM (inactive) in test [18]. Moreover, the GI50 is > 100 µM (inactive) in test [19] and 83.8 µM (inactive) in test [20].
Consider `O=C(O)C1CCCN1C(=O)c1cc(Cl)ccn1` (stereo not given), for which the GI50 in [1], in test [2], in test [3], in [4], in [5] and in [6] was > 100 µM (inactive) throughout. The GI50 in [7], in test [8], in test [9], in test [10], in [11] and in test [12] was > 100 µM (inactive) in each case. Also, the GI50 in test [13], in [14], in test [15], in [16], in test [17] and in [18] was > 100 µM (inactive) throughout. Besides, the GI50 in [19] and in [20] was > 100 µM (inactive) each time.
Take `CCOC(=O)OC1(c2ccccc2)CCN(C)CC1`: the GI50 in test [1], in test [2], in [3], in test [4], in [5] and in test [6] was > 100 µM (inactive) each time. Besides, the GI50 in [7], in test [8], in test [9], in [10], in test [11] and in test [12] was > 100 µM (inactive) throughout. The GI50 in test [13], in test [14], in test [15], in [16], in test [17] and in [18] was > 100 µM (inactive) throughout. In addition, the GI50 in test [19] and in test [20] was > 100 µM (inactive) in each case.
Take `CC(=O)Nc1ccc2c(c1)nc1c3ccccc3ccn21`: the GI50 was 56.1 µM (inactive) in [1]; > 100 µM (inactive) in test [2]; > 100 µM (inactive) in [3]; > 100 µM (inactive) in test [4]; 71.9 µM (inactive) in test [5]; > 100 µM (inactive) in test [6]. For the same compound, the GI50 was > 100 µM (inactive) in [7]; > 100 µM (inactive) in [8]; 85.9 µM (inactive) in test [9]; 81.1 µM (inactive) in test [10]; > 100 µM (inactive) in test [11]; > 100 µM (inactive) in [12]. Further, the GI50 in [13] was > 100 µM (inactive); in [14], > 100 µM (inactive); in [15], 99.1 µM (inactive); in [16], > 100 µM (inactive); in test [17], > 100 µM (inactive); in test [18], > 100 µM (inactive). Besides, the GI50 in test [19] was > 100 µM (inactive); in test [20], 55.6 µM (inactive).
Take `Nc1nc(Sc2ccc([N+](=O)[O-])c3nonc23)c2nc[nH]c2n1`: the GI50 was 0.369 µM (active) in test [1]; 1.85 µM (inactive) in test [2]; 1.01 µM (active) in test [3]; 3.69 µM (inactive) in [4]; 3.31 µM (inactive) in [5]; 1.75 µM (inactive) in test [6]. Moreover, the GI50 is 0.0822 µM (active) in test [7]; 0.733 µM (active) in test [8]; 0.701 µM (active) in [9]; 3.21 µM (inactive) in test [10]; 2.22 µM (inactive) in test [11]; 13.7 µM (inactive) in test [12]. Also, the GI50 was 0.687 µM (active) in test [13]; 0.232 µM (active) in [14]; 1.36 µM (inactive) in [15]; 1.06 µM (active) in test [16]; 0.593 µM (active) in test [17]; 15.8 µM (inactive) in test [18]. Moreover, the GI50 in [19] is 0.721 µM (active); in test [20], 0.622 µM (active).
